Values joined by “and” are separate entries in the source; they are usually repeats but may differ in a detail not shown here. Equal entries are not always repeated. Inconclusive results and toxic doses are left out. Rule for the calls: active = survival T/C of 150% or more; inactive = T/C below 125% in these data.
Tested on: P388 leukemia ip, CD2F1 mice, survival T/C
Assay: NCI In Vivo Anticancer Drug Screen. Data for tumor model P388 Leukemia (intraperitoneal) in CD2F1 (CDF1) mice
Settings: endpoint: median survival time, higher = longer survival
Experimental: The antitumor activity of compounds was measured in mice bearing transplantable tumors. Survival or tumor size were measured and the results are expressed as the measurement made in the treated group (T) divided by the measurement made in the vehicle treated control group (C). The tumor model used in this assay is P388 Leukemia (intraperitoneal) in CD2F1 (CDF1) mice

[1] = dose: 100.0 mg/kg/injection, schedule: Q01DX009 (ip), vehicle: saline with Tween-80
[2] = dose: 50.0 mg/kg/injection, schedule: Q01DX005 (ip), vehicle: saline with Tween-80
[3] = dose: 100.0 mg/kg/injection, schedule: Q01DX005 (ip), vehicle: saline with Tween-80
[4] = dose: 200.0 mg/kg/injection, schedule: Q01DX005 (ip), vehicle: saline with Tween-80
[5] = dose: 60.0 mg/kg/injection, schedule: Q01DX005 (ip), vehicle: saline with Tween-80
[6] = dose: 120.0 mg/kg/injection, schedule: Q01DX005 (ip), vehicle: saline with Tween-80
[7] = dose: 240.0 mg/kg/injection, schedule: Q01DX005 (ip), vehicle: saline with Tween-80
[8] = dose: 50.0 mg/kg/injection, schedule: Q01DX009 (ip), vehicle: saline with Tween-80
[9] = dose: 200.0 mg/kg/injection, schedule: Q01DX009 (ip), vehicle: saline with Tween-80
[10] = dose: 25.0 mg/kg/injection, schedule: Q01DX009 (ip), vehicle: saline with Tween-80
[11] = dose: 60.0 mg/kg/injection, schedule: Q01DX005 (ip), vehicle: saline
[12] = dose: 120.0 mg/kg/injection, schedule: Q01DX005 (ip), vehicle: saline
[13] = dose: 240.0 mg/kg/injection, schedule: Q01DX005 (ip), vehicle: saline
[14] = dose: 100.0 mg/kg/injection, schedule: Q04DX003 (ip), vehicle: saline
[15] = dose: 200.0 mg/kg/injection, schedule: Q04DX003 (ip), vehicle: saline
[16] = dose: 400.0 mg/kg/injection, schedule: Q04DX003 (ip), vehicle: saline
[17] = dose: 50.0 mg/kg/injection, schedule: Q01DX009 (ip), vehicle: saline
[18] = dose: 100.0 mg/kg/injection, schedule: Q01DX009 (ip), vehicle: saline
[19] = dose: 200.0 mg/kg/injection, schedule: Q01DX009 (ip), vehicle: saline

Measured: T/C

CCOc1ccc(Br)cc1/C=N/NS(=O)(=O)c1ccc(C)cc1
inactive: [1] 123 % of control

Cc1c([N+](=O)[O-])c(=O)oc2c1ccc1occc(=O)c12
inactive: [2] 96 % of control | [3] 89 % of control | [4] 90 % of control

COc1ccc2oc3c(ccc[n+]3C)c(=O)c2c1
inactive: dose: 30.0 mg/kg/injection, schedule: Q01DX005 (ip), vehicle: saline with Tween-80 107 % of control | [5] 120 % of control | [6] 107 % of control

COC(=O)c1nc2n[nH]c(N)c2c2c1CCCCCCCCCC2
inactive: [5] 99 % of control | [6] 93 % of control | [7] 94 % of control

CC1C(=O)C2(C(=O)O)CC1CCC2C12C=CC(=O)C(C)(C)C1C(=O)OC2 (centres undefined)
inactive: dose: 50.0 mg/kg/injection, schedule: Q04DX002 (ip), vehicle: saline with Tween-80 100 % of control | dose: 100.0 mg/kg/injection, schedule: Q04DX002 (ip), vehicle: saline with Tween-80 95 % of control | dose: 200.0 mg/kg/injection, schedule: Q04DX002 (ip), vehicle: saline with Tween-80 91 % of control

CCOC(=O)N1CCN(CCCCCOc2ccccc2C2CCCCC2)CC1
inactive: [8] 110 % of control | [1] 108 % of control | [9] 124 % of control | dose: 400.0 mg/kg/injection, schedule: Q01DX009 (ip), vehicle: saline with Tween-80 115 % of control

O=S(Nc1ccccc1)Nc1ccccc1
inactive: [10] 100 % of control | [8] 100 % of control | [1] 90 % of control

CCCCC(C)N(CCNc1cc(OC)cc2cccnc12)CC(C)C (centres undefined)
inactive: dose: 12.5 mg/kg/injection, schedule: Q01DX005 (ip), vehicle: saline 106 % of control | dose: 25.0 mg/kg/injection, schedule: Q01DX005 (ip), vehicle: saline 101 % of control | dose: 50.0 mg/kg/injection, schedule: Q01DX005 (ip), vehicle: saline 106 % of control and 97 % of control

CC(=O)OCC1OC(Nc2[nH]c(=O)[nH]c(=O)c2N=O)C(OC(C)=O)C(OC(C)=O)C1OC(C)=O (centres undefined)
inactive: [11] 111 % of control | [12] 103 % of control | [13] 103 % of control

Cc1cnc(C)n2ncnc12
inactive: [14] 93 % of control | [15] 95 % of control | [16] 88 % of control

C[Si](C)(C)CSCCO
inactive: [2] 106 % of control | [3] 104 % of control | [4] 100 % of control

O=C1C(Cl)=C(NCCCN(CCCNC2=C(Cl)C(=O)c3ccccc3C2=O)C2=C(Cl)C(=O)c3ccccc3C2=O)C(=O)c2ccccc21
inactive: [17] 108 % of control and 118 % of control | [18] 109 % of control and 115 % of control | [19] 105 % of control and 108 % of control

CN(C(=S)NNC(=O)C1CCC(=O)N1)c1ccccc1 (centres undefined)
inactive: [5] 99 % of control | [6] 98 % of control | [7] 103 % of control

O=C(c1ccc2c(c1)C(=O)NC2=O)c1ccc2c(c1)C(=O)NC2=O
inactive: [10] 96 % of control | [8] 89 % of control | [1] 86 % of control

O=C(O)c1c2c(nc3ccccc13)CCC(C(=O)O)C2 (centres undefined)
inactive: [5] 96 % of control | [6] 102 % of control | [7] 96 % of control

CCN=C(N)N=C(N)N
inactive: dose: 25.0 mg/kg/injection, schedule: Q01DX001 (ip), vehicle: saline 108 % of control | dose: 50.0 mg/kg/injection, schedule: Q01DX001 (ip), vehicle: saline 87 % of control | [17] 100 % of control | dose: 100.0 mg/kg/injection, schedule: Q01DX001 (ip), vehicle: saline 87 % of control | [18] 107 % of control | [19] 98 % of control

O=C(O)c1ncnn1-c1ccccc1
inactive: [11] 91 % of control | [12] 96 % of control | [13] 99 % of control

Cc1cc(C)c(F)[c]([Hg][Br])c1N
inactive: dose: 0.78 mg/kg/injection, schedule: Q01DX005 (ip), vehicle: Klucel (hydroxypropylcellulose) (HPC) 89 % of control | dose: 1.56 mg/kg/injection, schedule: Q01DX005 (ip), vehicle: Klucel (hydroxypropylcellulose) (HPC) 92 % of control | dose: 6.25 mg/kg/injection, schedule: Q01DX005 (ip), vehicle: Klucel (hydroxypropylcellulose) (HPC) 90 % of control and 92 % of control

O=C(N=Nc1c(O)[nH]c2ccccc12)C(F)(F)F
inactive: [2] 108 % of control | [3] 101 % of control | [4] 108 % of control

NC(=S)N/N=C/c1ccnnc1
inactive: dose: 3.12 mg/kg/injection, schedule: Q04DX003 (ip), vehicle: saline 104 % of control and 97 % of control | dose: 6.25 mg/kg/injection, schedule: Q04DX003 (ip), vehicle: saline 100 % of control and 97 % of control | dose: 12.5 mg/kg/injection, schedule: Q04DX003 (ip), vehicle: saline 104 % of control and 108 % of control | dose: 25.0 mg/kg/injection, schedule: Q04DX003 (ip), vehicle: saline 98 % of control and 100 % of control | dose: 25.0 mg/kg/injection, schedule: Q04DX003 (ip), vehicle: suspension in saline 99 % of control | [14] 103 % of control | [15] 97 % of control | [16] 97 % of control

CCCCCCSC(=O)Nc1ccc(C)c(NC(=O)SCCCCCC)c1
inactive: [8] 100 % of control | [1] 100 % of control | [9] 100 % of control

Nc1nc(N)n(N)c(=S)n1
inactive: dose: 50.0 mg/kg/injection, schedule: Q04DX003 (ip), vehicle: saline with Tween-80 96 % of control | dose: 100.0 mg/kg/injection, schedule: Q04DX003 (ip), vehicle: saline with Tween-80 106 % of control

CCCCS[Si](SC(C)(C)C)(SC(C)(C)C)SC(C)(C)C
inactive: dose: 100.0 mg/kg/injection, schedule: Q04DX002 (ip), vehicle: suspension in saline 95 % of control | dose: 200.0 mg/kg/injection, schedule: Q04DX002 (ip), vehicle: suspension in saline 99 % of control | dose: 400.0 mg/kg/injection, schedule: Q04DX002 (ip), vehicle: suspension in saline 93 % of control

O=S(=O)(CC(O)C(Cl)(Cl)Cl)NNc1ccccc1 (centres undefined)
inactive: [17] 99 % of control | [18] 112 % of control

CN=C(NC)c1ccc(NC(=O)/C=C/C(=O)Nc2ccc(C(=NC)NC)cc2)cc1
inactive: dose: 12.5 mg/kg/injection, schedule: Q01DX005 (ip), vehicle: saline with Tween-80 101 % of control | dose: 25.0 mg/kg/injection, schedule: Q01DX005 (ip), vehicle: saline with Tween-80 99 % of control | [2] 98 % of control and 103 % of control

C1CCC(C2CCCC[N-]2)[N-]C1.C1CCC(C2CCCC[N-]2)[N-]C1.[Cl][Co][Cl] (centres undefined)
inactive: [17] 100 % of control | [18] 109 % of control

CC(C)(C)OC(=O)CS(=O)Nc1ccccc1O (centres undefined)
inactive: dose: 60.0 mg/kg/injection, schedule: Q01DX005 (ip), vehicle: Klucel (hydroxypropylcellulose) (HPC) 105 % of control | dose: 120.0 mg/kg/injection, schedule: Q01DX005 (ip), vehicle: Klucel (hydroxypropylcellulose) (HPC) 108 % of control | dose: 240.0 mg/kg/injection, schedule: Q01DX005 (ip), vehicle: Klucel (hydroxypropylcellulose) (HPC) 97 % of control

CCCC(C)(O)/C(C)=N/O (centres undefined)
inactive: dose: 12.5 mg/kg/injection, schedule: Q01DX009 (ip), vehicle: saline with Tween-80 98 % of control | [10] 101 % of control | [8] 104 % of control and 87 % of control | [9] 90 % of control

Source: PubChem BioAssay AID330 (DTP/NCI, 2004)
